The record followed here is ChEMBL document CHEMBL3784961, “Kinetics and metabolism of paracetamol and phenacetin” (Br J Clin Pharmacol, 1980).

Data set [1] concerns Homo sapiens. Put plainly: Renal clearance in healthy human assessed as paracetamol sulfate level at 20 mg/kg. Format: ADME, organism-based, Kidney. The following applies: in vivo.
For data set [2], the system named is Homo sapiens. Put plainly: Renal clearance in healthy human assessed as paracetamol glucuronide level at 20 mg/kg. Format: ADME, organism-based, Kidney. The conditions noted are these: in vivo.
The nature of data set [3]: Systemic availability in human. It is filed as ADME, organism-based. The following applies: in vivo.
Data set [4] can be described thus: Apparent volume of distribution in human. The following applies: in vivo.
The nature of data set [5]: Drug excretion in human urine assessed as unchanged parent compound level. The conditions noted are these: read-out: Drug excretion. Format: ADME.
Data set [6] in a line: Half life in healthy young adult human. Format: ADME, organism-based. The following applies: in vivo.
Data set [7] in a line: Drug excretion in urine of healthy young adult human assessed as unchanged parent drug level after 24 hrs. The conditions noted are these: read-out: Drug excretion. It is filed as ADME.
Data set [8] can be described thus: Drug excretion in urine of healthy young adult human assessed as sulphate conjugate level after 24 hrs. It is filed as ADME. The conditions noted are these: in vivo.
Data set [9] can be described thus: Drug excretion in urine of healthy young adult human assessed as glucuronide conjugate level after 24 hrs. Format: ADME. The conditions noted are these: in vivo.
Data set [10] is described as follows: Half life in elderly human. Format: ADME, organism-based. The following applies: in vivo.
Data set [11] can be described thus: Drug excretion in urine of human at 20 mg/kg assessed as mercapturic conjugate level after 24 hrs. The conditions noted are these: in vivo. It is filed as ADME, organism-based.
Data set [12] is described as follows: Volume of distribution in 70 kg adult human at 12 mg/kg, iv infused over 2 mins. The conditions noted are these: in vivo.
The nature of data set [13]: Systemic availability in healthy adult male human subject at 12 mg/kg, po. It is filed as ADME, organism-based. The conditions noted are these: in vivo.
In data set [14] the test system is Homo sapiens. Put plainly: Drug recovery in healthy human subjects (8 subjects) assessed as sulphate conjugate level at 20 mg/kg, po. The conditions noted are these: in vivo. It is filed as ADME, organism-based.
Data set [15] relates to Homo sapiens. Put plainly: Drug recovery in poisoned human patient (9 patients) without liver damage receiving supportive treatment assessed as sulphate conjugate level at 20 mg/kg, po. Format: ADME, organism-based. The conditions noted are these: in vivo.
Data set [16] relates to Homo sapiens. Put plainly: Drug recovery in poisoned human patient (15 patients) without liver damage receiving cysteamine treatment assessed as sulphate conjugate level at 20 mg/kg, po. It is filed as ADME, organism-based. The conditions noted are these: in vivo.
Data set [17] has as its system Homo sapiens. The data set is described as follows: Drug recovery in poisoned human patient (8 patients) without liver damage receiving methionine treatment assessed as sulphate conjugate level at 20 mg/kg, po. The following applies: in vivo. It is filed as ADME, organism-based.
The subject of data set [18] is Homo sapiens. The data set is described as follows: Drug recovery in poisoned human patient (23 patients) without liver damage receiving NAC treatment assessed as sulphate conjugate level at 20 mg/kg, po. It is filed as ADME, organism-based. The following applies: in vivo.
Data set [19] deals with Homo sapiens. The data set is described as follows: Drug recovery in poisoned human patient (8 patients) with severe liver damage receiving supportive treatment assessed as sulphate conjugate level at 20 mg/kg, po. The conditions noted are these: in vivo. Format: ADME, organism-based.
The test system of data set [20] is Homo sapiens. Put plainly: Drug recovery in poisoned human patient (3 patients) with severe liver damage receiving methionine treatment assessed as sulphate conjugate level at 20 mg/kg, po. Format: ADME, organism-based. The following applies: in vivo.
Data set [21] deals with Homo sapiens. Put plainly: Drug recovery in poisoned human patient (8 patients) with severe liver damage receiving NAC treatment assessed as sulphate conjugate level at 20 mg/kg, po. Format: ADME, organism-based. The conditions noted are these: in vivo.
The subject of data set [22] is Homo sapiens. The data set is described as follows: Drug recovery in healthy human subjects (8 subjects) assessed as glucuronide conjugate level at 20 mg/kg, po. Format: ADME, organism-based. The following applies: in vivo.
For data set [23], the system named is Homo sapiens. The data set is described as follows: Drug recovery in poisoned human patient (9 patients) without liver damage receiving supportive treatment assessed as glucuronide conjugate level at 20 mg/kg, po. It is filed as ADME, organism-based. The following applies: in vivo.
In data set [24] the test system is Homo sapiens. The data set is described as follows: Drug recovery in poisoned human patient (15 patients) without liver damage receiving cysteamine treatment assessed as glucuronide conjugate level at 20 mg/kg, po. Format: ADME, organism-based. The conditions noted are these: in vivo.
For data set [25], the system named is Homo sapiens. The data set is described as follows: Drug recovery in poisoned human patient (8 patients) without liver damage receiving methionine treatment assessed as glucuronide conjugate level at 20 mg/kg, po. The conditions noted are these: in vivo. Format: ADME, organism-based.
Data set [26] deals with Homo sapiens. Put plainly: Drug recovery in poisoned human patient (23 patients) without liver damage receiving NAC treatment assessed as glucuronide conjugate level at 20 mg/kg, po. The conditions noted are these: in vivo. Format: ADME, organism-based.
Data set [27] relates to Homo sapiens. The data set is described as follows: Drug recovery in poisoned human patient (8 patients) with severe liver damage receiving supportive treatment assessed as glucuronide conjugate level at 20 mg/kg, po. It is filed as ADME, organism-based. The following applies: in vivo.
Data set [28] deals with Homo sapiens. The data set is described as follows: Drug recovery in poisoned human patient (3 patients) with severe liver damage receiving methionine treatment assessed as glucuronide conjugate level at 20 mg/kg, po. The following applies: in vivo. Format: ADME, organism-based.
Data set [29] relates to Homo sapiens. Put plainly: Drug recovery in poisoned human patient (8 patients) with severe liver damage receiving NAC treatment assessed as glucuronide conjugate level at 20 mg/kg, po. It is filed as ADME, organism-based. The conditions noted are these: in vivo.
Data set [30] relates to Homo sapiens. Put plainly: Drug recovery in healthy human subjects (8 subjects) assessed as mercapturate plus cysteine conjugate level at 20 mg/kg, po. Format: ADME, organism-based. The following applies: in vivo.
Data set [31] has as its system Homo sapiens. Put plainly: Drug recovery in poisoned human patient (9 patients) without liver damage receiving supportive treatment assessed as mercapturate plus cysteine conjugate level at 20 mg/kg, po. It is filed as ADME, organism-based. The conditions noted are these: in vivo.
For data set [32], the system named is Homo sapiens. The data set is described as follows: Drug recovery in poisoned human patient (15 patients) without liver damage receiving cysteamine treatment assessed as mercapturate plus cysteine conjugate level at 20 mg/kg, po. It is filed as ADME, organism-based. The conditions noted are these: in vivo.
Data set [33] concerns Homo sapiens. Put plainly: Drug recovery in poisoned human patient (8 patients) without liver damage receiving methionine treatment assessed as mercapturate plus cysteine conjugate level at 20 mg/kg, po. It is filed as ADME, organism-based. The following applies: in vivo.
Data set [34] has as its system Homo sapiens. Put plainly: Drug recovery in poisoned human patient (23 patients) without liver damage receiving NAC treatment assessed as mercapturate plus cysteine conjugate level at 20 mg/kg, po. It is filed as ADME, organism-based. The following applies: in vivo.
Data set [35] relates to Homo sapiens. The data set is described as follows: Drug recovery in poisoned human patient (8 patients) with severe liver damage receiving supportive treatment assessed as mercapturate plus cysteine conjugate level at 20 mg/kg, po. Format: ADME, organism-based. The following applies: in vivo.
Data set [36] relates to Homo sapiens. Put plainly: Drug recovery in poisoned human patient (3 patients) with severe liver damage receiving methionine treatment assessed as mercapturate plus cysteine conjugate level at 20 mg/kg, po. Format: ADME, organism-based. The following applies: in vivo.
The subject of data set [37] is Homo sapiens. Put plainly: Drug recovery in poisoned human patient (8 patients) with severe liver damage receiving NAC treatment assessed as mercapturate plus cysteine conjugate level at 20 mg/kg, po. It is filed as ADME, organism-based. The following applies: in vivo.
Data set [38] concerns Homo sapiens. Put plainly: Mean drug recovery in poisoned human patient (9 patients) without liver damage receiving supportive treatment at 20 mg/kg, po. It is filed as ADME, organism-based. The following applies: in vivo.
Data set [39] relates to Homo sapiens. The data set is described as follows: Mean drug recovery in poisoned human patient (15 patients) without liver damage receiving cysteamine treatment at 20 mg/kg, po. Format: ADME, organism-based. The conditions noted are these: in vivo.
Data set [40] deals with Homo sapiens. The data set is described as follows: Mean drug recovery in poisoned human patient (8 patients) without liver damage receiving methionine treatment at 20 mg/kg, po. It is filed as ADME, organism-based. The conditions noted are these: in vivo.
In data set [41] the test system is Homo sapiens. The data set is described as follows: Mean drug recovery in poisoned human patient (23 patients) without liver damage receiving NAC treatment at 20 mg/kg, po. Format: ADME, organism-based. The following applies: in vivo.
The subject of data set [42] is Homo sapiens. Put plainly: Mean drug recovery in poisoned human patient (8 patients) with severe liver damage receiving supportive treatment at 20 mg/kg, po. The conditions noted are these: in vivo. Format: ADME, organism-based.
The subject of data set [43] is Homo sapiens. Put plainly: Mean drug recovery in poisoned human patient (3 patients) with severe liver damage receiving methionine treatment at 20 mg/kg, po. It is filed as ADME, organism-based. The conditions noted are these: in vivo.
Data set [44] has as its system Homo sapiens. Put plainly: Mean drug recovery in poisoned human patient (8 patients) with severe liver damage receiving NAC treatment at 20 mg/kg, po. Format: ADME, organism-based. The following applies: in vivo.
The nature of data set [45]: Elimination half life in healthy adult male human subject at 12 mg/kg, po. Format: ADME, organism-based. The following applies: in vivo, read-out: beta t1/2 (converted).
Data set [46] in a line: Elimination half life in healthy adult male human subject at 12 mg/kg, iv. Format: ADME, organism-based. The conditions noted are these: in vivo, read-out: beta t1/2 (converted).
Data set [47] has as its system Homo sapiens. The data set is described as follows: Distribution half life in healthy adult male human subject at 12 mg/kg, iv. The conditions noted are these: in vivo. Format: ADME, organism-based.
Data set [48] in a line: Volume of distribution at central compartment in healthy adult male human subject at 12 mg/kg, iv. The conditions noted are these: in vivo.
Data set [49] in a line: Volume of distribution at central and peripheral compartment in healthy adult male human subject at 12 mg/kg, iv. The following applies: in vivo.
Data set [50] in a line: Half life in human. The conditions noted are these: in vivo. It is filed as ADME, organism-based.

In the case of `CC(=O)Nc1ccc(OS(=O)(=O)O)cc1`, in the data set with Homo sapiens [1], the CL worked out at 166 mL/min.
Regarding `CC(=O)Nc1ccc(O[C@@H]2O[C@H](C(=O)O)[C@@H](O)[C@H](O)[C@H]2O)cc1` [ACETAMINOPHEN GLUCURONIDE], the CL with Homo sapiens [2] was 130 mL/min.
Turning to `CC(=O)Nc1ccc(O)cc1` [ACETAMINOPHEN], the results for the bioavailability in data set [3] and in [13] were 75% and 76%, respectively. The Vd in data set [4] came to 0.9 L/kg; in data set [48] it was 0.509 L/kg; in [49], 0.897 L/kg. The dose excreted in data set [5] was 2%. In addition, the half-life in [6] is 2 h; in data set [10], 2.17 h; in data set [45], 1.97 h; in data set [46] it was 1.98 h. The dose excreted at 24 h in data set [7] amounted to 4%. Besides, the Drug excretion was 30% in data set [8], 55% in data set [9] and 4% in data set [11]. In data set [12], this compound came in with a Vd at 2 min of 65 L. In addition, the Drug recovery in the data set on Homo sapiens [14] was 32.3%; in the data set with Homo sapiens [15] it was 9.3%; in the data set with Homo sapiens [16] it was 11.9%; in the data set with Homo sapiens [17] it was 10.1%; in the data set on Homo sapiens [18] it was 14.5%; with Homo sapiens [19], 9.7%. Also, the Drug recovery is recorded as 9.1% with Homo sapiens [20]; 13.3% in the data set on Homo sapiens [21]; 54.7% in the data set with Homo sapiens [22]; 75.3% with Homo sapiens [23]; 72.4% with Homo sapiens [24]; 73.9% in the data set on Homo sapiens [25]. The Drug recovery was determined as 63.6% in the data set on Homo sapiens [26]; 66.5% in the data set with Homo sapiens [27]; 68.9% in the data set on Homo sapiens [28]; 60.9% in the data set with Homo sapiens [29]; 8% in the data set with Homo sapiens [30]; 6.9% in the data set with Homo sapiens [31]. The Drug recovery is reported as 6.4% with Homo sapiens [32]; 8.1% with Homo sapiens [33]; 10.6% with Homo sapiens [34]; 15.2% in the data set with Homo sapiens [35]; 13.8% in the data set on Homo sapiens [36]; 16.5% with Homo sapiens [37]. In addition, the Drug recovery in the data set with Homo sapiens [38] was determined as 10.3 g; in the data set on Homo sapiens [39] it was 14.5 g; in the data set with Homo sapiens [40] it was 14.5 g; in the data set on Homo sapiens [41], 13.4 g; in the data set on Homo sapiens [42], 11.8 g; in the data set with Homo sapiens [43], 13.7 g. Moreover, the Drug recovery in the data set on Homo sapiens [44] stood at 13 g. Also, the alphat1/2 in the data set with Homo sapiens [47] was determined as 0.13 h.
With `CCOc1ccc(NC(C)=O)cc1` [PHENACETIN], the dose excreted in data set [5] was less than 0.5%. This compound also gave a half-life in data set [50] of 1 h.

One may read the bioavailability as dose-corrected exposure relative to a reference, in per cent. Low values mean little systemic uptake, high ones much systemic uptake.
